Measurements taken from patent publication US7201899B2, “Materials and methods for management of hyperacute rejection in human xenotransplantation” (BresaGen Limited, priority 1994, dated 2007).
“Also recorded” adds a separate entry of the source.

How the values were obtained:
[1] = tested on: pig kidney, heart and liver sections; assay: Immunostaining of pig tissues with anti-GAL antibodies; assay type: binding; conditions: pig renal cortex sections, proximal tubule brush borders; sugar 0.1 M
Procedure: Pig kidney was fixed in formalin and dehydrated before embedding in Paraplast. Pig heart and liver were fixed in paraformaldehyde-lysine-periodate fixative and snap frozen in O.C.T. embedding compound (10.24% w/w polyvinyl alcohol, 4.26% w/w polyethylene glycol, 85.50% w/w nonreactive ingredients; Tissue Tek®, Miles, Inc., Elkhart, Ind., USA). Four μm-thick sections of pig heart and liver and 2 μm-thick sections of kidney were incubated with purified anti-GAL antibodies (undiluted, 1:2 and 1:4) for 60 min. and then incubated with a fluorescein isothiocyanate (FITC)-conjugated sheep anti-human immunoglobulin F(ab′) fragment. (Silenus Laboratories, Hawthorn, Australia) (1:100) for 30 min. or a peroxidase-conjugated rabbit anti-human IgG (Dakopatts, Glostrup, Denmark) (1:50) for 60 min. Control sections were analyzed for autofluorescence, with the secondary antibody alone, or with the anti-GAL-depleted IgG or normal pig serum as the primary antibody. […] The specificity of the anti-GAL antibodies was tested by pre-incubating sections of pig renal cortex with a variety of sugars, including melibiose, lactose, sucrose and glucose at 0.1 M.

[2] = tested on: PAE's; assay: Cytotox LDH release assay: effect of sugars on lysis of PAE's by human serum; assay type: cell-based, porcine; conditions: 50% human serum, sugar 1 mM to 100 mM
Procedure: B. LDH Release Assay • 1. […] Controls: • a) Spontaneous release (no antibody or complement) • 25 μl labeled cells • 75 μl RPMI/10% FCS (heat inactivated) • b) Maximum release • 25 μl labeled cells • 50 μl 16% Triton X-100 • 25 μl RPMI/10% FCS (heat inactivated) • 3. Calculation of % Lysis: % Lysis=Experimental release−(Spontaneous release cpm+sugar cpm)×100 Maximum release−(Spontaneous release cpm+sugar cpm) • 4. Experimental Design:
The effect of adding the disaccharide sugars melibiose ([…]) and lactose (Gal β1→4 Glu) on the lysis of PAE's by human serum was assessed using the Cytotox non-radioactive LDH release assay. PAE's were incubated in the presence of 50% human serum as the source of xenoantibody and complement, together with various concentrations of each sugar (1 mM to 100 mM).

[3] = tested on: rat heart; assay: Langendorf isolated perfused ex vivo heart model; conditions: sugar 10 mM, human plasma to 13%
Procedure: A. Preparation and Storage of Human Plasma • 1. Centrifuge fresh human blood at 3000 rpm, 10 min., 4° C. to remove red blood cells (RBC's) • 2. Remove the plasma • 3. Centrifuge the plasma at 10,000 rpm, 10 min. 4° C. to remove any remaining cells; decant the plasma • 4. Add 2.5 ml of 0.1M EDTA pH 7.30 for every 50 ml of plasma • 5. Store 50 ml aliquots at −70° C. • 6. For heat-inactivated plasma, heat at 56° C. for 60 min., then centrifuge at 2,500 rpm for 10 min.
Plasma prepared from different blood packs is thawed at 37° C., pooled and filtered (100 μm steel mesh, 8.0 μm and 4.5 μm Millipore filters, sequentially). Cacl2 is added at 0.58 mg/ml plasma, and the plasma kept on ice until ready for perfusion.
1. Anesthetize rats with Nembutal (1 μl sodium pentobarbitone (60 mg/ml)/g body weight) and mice with ether.
2. Surgically expose the heart and inject heparin (Porcine Mucous, 10,000 U/ml) into the femoral vein (rats: 0.3 ml injected).
3. Remove heart and place in ice-cold Krebs-Henseleit buffer containing heparin (0.2 ml/50 ml buffer. • Krebs-Henseleit buffer: • 119 mM NaCl • 25 mM NaHCO3 • 4.6 mM KCl • 1.2 mM MgSO4.7H2O • 1.3 mM CaCl2.2H2O • 1.2 mM KH2PO4 • 11 mM glucose • 0.25% (v/v) BSA • Adjust to pH 7.4; store at 4° C.
4. Connect aorta to the canula of the Langendorf perfusion apparatus and tie firmly. The apparatus was assembled by the present inventors according to experimental requirements of the Langendorf heart model as described in Doring & Dehnerrt, The Isolated Perfused Heart According to Langendorf, Bionesstechnik-Verlag March GmbH, D7806, West Germany.
5. Perfuse with Krebs-Henseleit buffer (made fresh each day), which is gassed continuously with carbogen (95% O2, 5% CO2) at a pressure of 100 mmHg, at 37° C.
6. Attach a hook, connected to a transducer (Physiograph MK-111-S, Narco Bio-Systems) to the apex of the heart.
7. Perfuse heart for 20 min. with Krebs-Henseleit buffer to enable heart to stabilize (reservoir volume: 270 ml).
8. […]

Row | SMILES | inhibition of anti-GAL antibody binding to pig tissue by sugar [1] | protection of PAE's from lysis by human serum [2] | cardiac function of rat heart perfused with human plasma plus sugar [3] | cardiac function of rat heart perfused with human plasma plus sugar ([3]; listed as lactose)
1 | OC[C@H]1O[C@@H](O[C@H]2[C@H](O)[C@@H](O)[C@@H](O)O[C@@H]2CO)[C@H](O)[C@@H](O)[C@H]1O [Lactose, 4-O-β-D.galactopyranosyl-α-D-glucose] | not inhibited | not | does-not prolong heart survival | the heart essentially stopped beating within minutes. The same result was obtained
2 | O=C[C@H](O)[C@@H](O)[C@H](O)[C@H](O)CO[C@H]1O[C@H](CO)[C@H](O)[C@H](O)[C@H]1O [Melibiose, 6-O-α-D-galactopyranosyl-D-glucose] | reduced to near background; also recorded: inhibited | protected the pig cells from lysis | the heart was able to maintain a strong beat; also recorded: prolongs heart survival and output | –
